System: hyperuricemia model mice
Assay: Allopurinol-induced change in plasma uric acid level in hyperuricemia model mice
Format: in vivo, mouse
Protocol: The hyperuricemia model mice obtained as described above were subjected to administration of allopurinol, which is an existing drug for lowering blood uric acid levels. The number of the mice subjected to administration of allopurinol was six.
Allopurinol (Wako Pure Chemical Industries, Ltd.) was suspended in a 0.5 w/v% methylcellulose (MC) 400 solution (sterilized, Wako Pure Chemical Industries, Ltd.) for preparation of a 0.5 mg/mL allopurinol suspension. The 0.5 mg/mL allopurinol suspension was orally administered once in a volume of 10 mL/kg body weight (5 mg/kg body weight).
Blood was collected from each mouse before and 2, 4 and 24 hours after allopurinol or a 0.5 w/v % methylcellulose 400 solution was administered. The plasma uric acid concentration was measured in the same manner as above.

For Oc1ncnc2[nH]ncc12 [allopurinol], the “mean of the plasma uric acid concentrations” value (2 hours after single oral 5 mg/kg body weight, 6 mice, mean before administration 3.8 mg/dL, vehicle control 3.0 before, 4.8 at 2 hours) was 1.9 mg/dL and the “change of plasma uric acid concentration by administration” value (single oral 5 mg/kg body weight, 2 hours after vs before administration) was “significantly reduced”.

— patent US10314295B2, “Mouse model of hyperuricemia” (PHOENIXBIO CO., LTD., priority 2014, dated 2019)
